Experimental data from patent US6828440B2, “Spiroindene and spiroindane compounds” (Euro-Celtique, S.A., priority 2001, dated 2004).

Biological target: T1, human opioid receptor-like receptor (ORL-1) (Homo sapiens, UniProt P41146)
T1 construct: host or cells: HEK-293
Assay: Nociceptin affinity at the ORL1 receptor ([35S]GTPgS binding, membranes from recombinant HEK-293 cells)
Conditions: ORL-1 membranes from recombinant HEK-293 cells; GraphPad PRISM curve fitting; read-out: Nociceptin Affinity calc Ki
Method: Nociceptin affinity at the ORL1 receptor for preferred compounds was obtained using the following assay:
Membranes from recombinant HEK-293 cells expressing the human opioid receptor-like receptor (ORL-1) (Receptor Biology) were prepared by lysing cells in ice-cold hypotonic buffer (2.5 mM MgCl2, 50 mM HEPES, pH 7.4) (10 ml/10 cm dish) followed by homogenization with a tissue grinder/teflon pestle. Membranes were collected by centrifugation at 30,000× g for 15 min at 4° C. and pellets resuspended in hypotonic buffer to a final concentration of 1-3 mg/ml. Protein concentrations were determined using the BioRad protein assay reagent with bovine serum albumen as standard. Aliquots of the ORL-1 receptor membranes were stored at −80° C.
Functional SGTPgS binding assays were conducted as follows. ORL-1 membrane solution was prepared by sequentially adding final concentrations of 0.066 mg/ml ORL-1 membrane protein, […], […] and 0.20 nM [^35S]GTPgS to binding buffer (100 mM NaCl, 10 mM MgCl2, 20 mM HEPES, pH 7.4) on ice. The prepared membrane solution ([…]) was transferred to 96-shallow well polypropylene plates containing […] of 20× concentrated stock solutions of agonist prepared in DMSO. Plates were incubated for 30 min at room temperature with shaking. Reactions were terminated by rapid filtration onto 96-well Unifilter GF/B filter plates (Packard) using a 96-well tissue harvester (Brandel) and followed by three filtration washes with […] ice-cold binding buffer (10 mM NaH2PO4, 10 mM Na2HPO4, pH 7.4). Filter plates were subsequently dried at 50° C. for 2-3 hours. […] scintillation cocktail (BetaScint; Wallac) was added and plates were counted in a Packard Top-Count for 1 min/well.
Data was analyzed using the curve fitting functions in GraphPad PRISMÔ, v.

T1 sequence (P41146 whole entry): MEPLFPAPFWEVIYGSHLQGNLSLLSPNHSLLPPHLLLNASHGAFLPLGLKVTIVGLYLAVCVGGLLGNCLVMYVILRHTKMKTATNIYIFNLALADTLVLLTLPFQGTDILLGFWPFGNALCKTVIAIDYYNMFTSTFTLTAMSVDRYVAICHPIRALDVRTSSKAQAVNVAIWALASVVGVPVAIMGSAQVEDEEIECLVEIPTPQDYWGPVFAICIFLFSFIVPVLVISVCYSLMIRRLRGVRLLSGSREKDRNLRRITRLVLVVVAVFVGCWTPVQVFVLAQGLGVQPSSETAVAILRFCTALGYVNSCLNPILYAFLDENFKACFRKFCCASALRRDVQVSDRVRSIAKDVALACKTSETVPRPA

| SMILES | Ki [µM] |
| --- | --- |
| c1ccc2c(c1)CC(N1CCC3(CCc4ccccc43)CC1)C2 [1-(1,3-dihydroinden-2-yl)-spiro[piperidine-4,1′-indane]] | > 10 |
| c1ccc2c(c1)CCC21CCN(CC2CCCCCCC2)CC1 [1-(cyclooctylmethyl)-spiro[piperidine-4,1′-indane]] | 0.153 |
| c1ccc(CCN2CCC3(CCc4ccccc43)CC2)cc1 [1-(2-phenyl-ethyl)-spiro[piperidine-4,1′-indane]] | 0.921 |
| O=C1CC2(CCN(Cc3ccc4ccccc4c3)CC2)c2ccccc21 [1-(naphth-2-yl-methyl)-spiro[piperidine-4,1′-(3-oxo)-indane]] | 0.419 |
| C1=CC2(CCN(C3CCc4ccccc4C3)CC2)c2ccccc21 (stereo not shown) [1-(2-[1,2,3,4-tetrahydronaphthyl])-spiro[piperidine-4,1′-indene]] | 1.2 |
| c1ccc2cc(CN3CCC4(CCC5CCCCC54)CC3)ccc2c1 (stereo not drawn) [1-(naphth-2-yl-methyl)-spiro[piperidine-4,1′-cis-3a, 4,5,6,7,7a-hexahydroindane]] | 0.306 |
| C1=CC2(CCN(CC3CCCCCCC3)CC2)c2ccccc21 [1-(cyclooctylmethyl)-spiro[piperidine-4,1′-indene]] | 0.309 |
| c1ccc2c(c1)CCC21CCN(C2CCCCCCC2)CC1 [1-(cyclooctyl)-spiro[piperidine-4,1′-indane]] | 0.516 |
| C1=CC2(CCN(C3CC4CCC3C4)CC2)c2ccccc21 (stereo not shown) [1-(norbornan-2-yl)-spiro[piperidine-4,1′-indene]] | 6.47 |
| Fc1ccc(C(CCCN2CCC3(CCc4ccccc43)CC2)c2ccc(F)cc2)cc1 [1-(4,4-Bis(p-fluorophenyl)butyl)-spiro[piperidine-4,1′-indane]] | > 10 |
| CCCC1CCC(N2CCC3(CCc4ccccc43)CC2)CC1 (stereo not shown) [1-(4-propyl-cyclohexyl)-spiro[piperidine-4,1′-indane]] | 2.24 |
| c1ccc2c(c1)CCC21CCN(Cc2ccc3ccccc3c2)CC1 [1-(naphth-2-yl-methyl)-spiro[piperidine-4,1′-indane]] | 0.035 |
| C1=CC2(CCN(Cc3ccc(OCc4ccccc4)cc3)CC2)c2ccccc21 [1-(p-benzyloxybenzyl)-spiro[piperidine-4,1′-indene]] | 1.56 |
| C1=CC2(CCN(C3CCC4CCCCC4C3)CC2)c2ccccc21 (stereo not shown) [1-(decahydro-2-naphthyl)-spiro[piperidine-4,1′-indene]] | 1.29 |
| c1ccc2c(c1)CCC21CCN(C2C3CCC2CC3)CC1 (stereo not shown) [1-(norbornan-7-yl)-spiro[piperidine-4,1′-indane]] | 0.913 |
| C1=CC2(CCN(CCC(c3ccccc3)c3ccccc3)CC2)c2ccccc21 [1-(3,3-Bis(phenyl)propyl)-spiro[piperidine-4,1′-indene]] | 0.042 |
| c1ccc(COc2ccc(CN3CCC4(CCc5ccccc54)CC3)cc2)cc1 [1-(p-benzyloxybenzyl)-spiro[piperidine-4,1′-indane]] | 0.877 |
| O=C1Cc2ccccc2C12CCN(Cc1ccc3ccccc3c1)CC2 [1-(naphth-2-yl-methyl)-spiro[piperidine-4,1′-(2-oxo)-indane]] | 0.083 |

| SMILES | Ki [µM] |
| --- | --- |
| CC1(C)COC2(CCC(N3CCC4(CCc5ccccc54)CC3)CC2)OC1 [1-(3,3-dimethyl-1,5-dioxaspiro[5.5]undeca-9-yl)-spiro[piperidine-4,1′-indane]] | > 10 |
| C1=CC2(CCN(C3Cc4ccccc4C3)CC2)c2ccccc21 [1-(1,3-dihydroinden-2-yl)-spiro[piperidine-4,1′-indene]] | 8.5 |
| C1=CC2(CCN(C3CCCCCCC3)CC2)c2ccccc21 [1-(cyclooctyl)-spiro[piperidine-4,1′-indene]] | 0.5 |
| C1=CC2(CCN(Cc3ccc4ccccc4c3)CC2)c2ccccc21 [1-(naphth-2-yl-methyl)-spiro[piperidine-4,1′-indene]] | 0.036 |
| c1ccc2c(c1)CCC21CCN(C2CC3CCC2C3)CC1 (stereo not shown) [1-[norbornan-2-yl]-spiro[piperidine-4,1′-indane]] | 7.21 |
| c1ccc2c(c1)CCc1ccccc1C2N1CCC2(CCc3ccccc32)CC1 [1-(10,11-Dihydro-5H-dibenzo[a,d]-cyclohepten-5-yl)-spiro[piperidine-4,1′-indane]] | > 10 |
| CC(C)CCC(C)N1CCC2(C=Cc3ccccc32)CC1 (stereo not shown) [1-(5-methylhex-2-yl)-spiro[piperidine-4,1′-indene]] | 0.355 |
| c1ccc2c(c1)CCC21CCN(Cc2cccc3ccccc23)CC1 [1-(naphth-1-yl-methyl)-spiro[piperidine-4,1′-indane]] | 0.146 |
| C1=CC2(CCN(C3c4ccccc4CCc4ccccc43)CC2)c2ccccc21 [1-(10,11-Dihydro-5H-dibenzo[a,d]-cyclohepten-5-yl)-spiro[piperidine-4,1′-indene]] | > 10 |
| N#Cc1ccc(CN2CCC3(CCc4ccccc43)CC2)cc1 [1-(p-cyano-benzyl)-spiro[piperidine-4,1′-indane]] | 1.53 |
| CC(C)CCC(C)N1CCC2(CCc3ccccc32)CC1 (stereo not shown) [1-(5-methylhex-2-yl)-spiro[piperidine-4,1′-indane]] | 0.676 |
| CC(C)C1CCC(N2CCC3(CCc4ccccc43)CC2)CC1 (stereo not shown) [1-(4-(1-methylethyl)-cyclohexyl)-spiro[piperidine-4,1′-indane]] | 0.5 |
| c1ccc(CN2CCC3(CCc4ccccc43)CC2)cc1 [1-(benzyl)-spiro[piperidine-4,1′-indane]] | 0.879 |
| c1ccc(-c2ccc(CN3CCC4(CCc5ccccc54)CC3)cc2)cc1 [1-(p-phenylbenzyl)-spiro[piperidine-4,1′-indane]] | 1.21 |
| CC1(C)COC2(CCC(N3CCC4(C=Cc5ccccc54)CC3)CC2)OC1 [1-(3,3-dimethyl-1,5-dioxaspiro[5.5]undeca-9-yl)-spiro[piperidine-4,1′-indene]] | > 10 |
| C1=CC2(CCN(C3CCCCCCCCC3)CC2)c2ccccc21 [1-cyclodecyl-spiro[piperidine-4,1′-indene]] | 0.427 |
| c1ccc2c(c1)CCC21CCN(C2CCC3CCCCC3C2)CC1 (stereo not shown) [1-(decahydro-2-naphthyl)-spiro[piperidine-4,1′-indane]] | 3.14 |
| CC(C)C1CCC(N2CCC3(C=Cc4ccccc43)CC2)CC1 (stereo not shown) [1-[4-(2-propyl)-cyclohexyl]-spiro[piperidine-4,1′-indene]] | 0.292 |

Biological target: Mu opioid receptor (Homo sapiens, UniProt P35372)
Assay: Affinity at the μ receptor ([35S]GTPγS binding, membranes)
Conditions: GraphPad PRISM curve fitting, read-out: Mu Receptor Affinity calc Ki
Method: Affinity at the μ receptor for compounds was obtained according to the following assay:
Mu opioid receptor membrane solution was prepared by sequentially adding final concentrations of […] of the desired membrane protein, 10 μg/ml saponin, 3 μM GDP and 0.20 nM [^35S]GTPγS to binding buffer (100 mM NaCl, 10 mM MgCl2, 20 mM HEPES, pH 7.4) on ice. The prepared membrane solution (190 μl/well) was transferred to 96-shallow well polypropylene plates containing 10 μl of 20× concentrated stock solutions of agonist prepared in DMSO. Plates were incubated for 30 min at room temperature with shaking. Reactions were terminated by rapid filtration onto 96-well Unifilter GF/B filter plates (Packard) using a 96-well tissue harvester (Brandel) and followed by three filtration washes with 200 μl ice-cold binding buffer (10 mM NaH2PO4, 10 mM Na2HPO4, pH 7.4). Filter plates were subsequently dried at 50° C. for 2-3 hours. Fifty μl/well scintillation cocktail (MicroScint20, Packard) was added and plates were counted in a Packard Top-Count for 1 min/well.
Data were analyzed using the curve fitting functions in GraphPad PRISM™, v.3.0 and the results for several compounds are set forth in table 2 below: […]

Mu opioid receptor, sequence (P35372 whole entry, species assumed): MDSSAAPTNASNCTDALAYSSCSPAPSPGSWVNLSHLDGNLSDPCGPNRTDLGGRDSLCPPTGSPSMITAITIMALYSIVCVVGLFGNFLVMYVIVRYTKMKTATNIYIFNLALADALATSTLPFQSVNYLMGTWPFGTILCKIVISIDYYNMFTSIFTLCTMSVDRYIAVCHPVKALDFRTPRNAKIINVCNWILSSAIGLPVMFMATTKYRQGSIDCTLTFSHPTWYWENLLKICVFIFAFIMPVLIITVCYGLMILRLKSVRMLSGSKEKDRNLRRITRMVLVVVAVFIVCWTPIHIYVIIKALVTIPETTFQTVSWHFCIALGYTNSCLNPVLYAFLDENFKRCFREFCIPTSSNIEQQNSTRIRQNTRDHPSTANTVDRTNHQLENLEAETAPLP

| SMILES | Ki [µM] |
| --- | --- |
| c1ccc2c(c1)CCC21CCN(Cc2ccc3ccccc3c2)CC1 [1-(naphth-2-yl-methyl)-spiro[piperidine-4,1′-indane]] | 0.593 |
| C1=CC2(CCN(C3CCCCCCC3)CC2)c2ccccc21 [1-(cyclooctyl)-spiro[piperidine-4,1′-indene]] | 2.04 |
| c1ccc2c(c1)CCC21CCN(Cc2cccc3ccccc23)CC1 [1-(naphth-1-yl-methyl)-spiro[piperidine-4,1′-indane]] | 1.12 |
| CC(C)C1CCC(N2CCC3(CCc4ccccc43)CC2)CC1 (stereo not shown) [1-(4-(1-methylethyl)-cyclohexyl)-spiro[piperidine-4,1′-indane]] | 0.939 |
